Data reported in ChEMBL document CHEMBL1201862, “PubChem BioAssay data set” (2004).
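Test compounds were applied to cells in 96-well plates for 48 hours at 5 doses. GI50 marks 50% less growth.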 Activity calls are given as the source filed them. Cut-off read from the data, not from the text of the source: active = GI50 up to about 1.1 µM and inactive = higher.

Columns and labels:
Experiment in all cases: DTP human tumour cell line panel, 48 h
Hs-578T = test system: Hs-578T
SK-MEL-2 = test system: SK-MEL-2
MDA-MB-435 = test system: MDA-MB-435
SK-OV-3 = test system: SK-OV-3
SF-268 = test system: SF-268
NCI-H460 = test system: NCI-H460
U-251 = test system: U-251
ACHN = test system: ACHN
NCI-H23 = test system: NCI-H23
CCRF-CEM = test system: CCRF-CEM
RPMI-8226 = test system: RPMI-8226
HOP-92 = test system: HOP-92
NCI-H226 = test system: NCI-H226
UACC-257 = test system: UACC-257
HOP-62 = test system: HOP-62
BT-549 = test system: BT-549
SW-620 = test system: SW-620
OVCAR-4 = test system: OVCAR-4
UO-31 = test system: UO-31
SK-MEL-28 = test system: SK-MEL-28
SF-295 = test system: SF-295
A498 = test system: A498
Malme-3M = test system: Malme-3M
EKVX = test system: EKVX
COLO 205 = test system: COLO 205
PC-3 = test system: PC-3
UACC-62 = test system: UACC-62
OVCAR-8 = test system: OVCAR-8
IGROV-1 = test system: IGROV-1
SN12C = test system: SN12C
LOX IMVI = test system: LOX IMVI
OVCAR-3 = test system: OVCAR-3
TK-10 = test system: TK-10
MCF7 = test system: MCF7
HCT-116 = test system: HCT-116
HCC 2998 = test system: HCC 2998
MDA-MB-231 = test system: MDA-MB-231
SNB-19 = test system: SNB-19
A549 = test system: A549
SK-MEL-5 = test system: SK-MEL-5
NCI-H522 = test system: NCI-H522
MDA-N = test system: MDA-N
HCT-15 = test system: HCT-15
NCI/ADR-RES = test system: NCI/ADR-RES
KM12 = test system: KM12
CAKI-1 = test system: CAKI-1
T47D = test system: T47D
OVCAR-5 = test system: OVCAR-5
786-0 = test system: 786-0
MOLT-4 = test system: MOLT-4
SF-539 = test system: SF-539
DU-145 = test system: DU-145
HL-60 = test system: HL-60
M14 = test system: M14
HT-29 = test system: HT-29
RXF 393 = test system: RXF 393
SNB-75 = test system: SNB-75
K562 = test system: K562
SR = test system: SR

Measured: GI50

COc1cc2c(cc1O)C1Cc3ccc(OC)c(O)c3C(C2)N1C (centres undefined)
> 100 µM: HCT-15
inactive: Hs-578T 42.8 µM | SK-MEL-2 > 100 µM | MDA-MB-435 > 100 µM | SK-OV-3 > 100 µM | SF-268 > 100 µM | NCI-H460 94 µM | U-251 > 100 µM | ACHN > 100 µM | NCI-H23 > 100 µM | CCRF-CEM > 100 µM | RPMI-8226 > 100 µM | HOP-92 17.5 µM | NCI-H226 > 100 µM | UACC-257 > 100 µM | HOP-62 92.9 µM | BT-549 > 100 µM | SW-620 > 100 µM | OVCAR-4 > 100 µM | UO-31 > 100 µM | SK-MEL-28 > 100 µM | SF-295 > 100 µM | A498 > 100 µM | Malme-3M > 100 µM | EKVX > 100 µM | COLO 205 > 100 µM | PC-3 90.8 µM | UACC-62 > 100 µM | OVCAR-8 > 100 µM | IGROV-1 > 100 µM | SN12C > 100 µM | LOX IMVI > 100 µM | OVCAR-3 > 100 µM | TK-10 > 100 µM | MCF7 > 100 µM | HCT-116 > 100 µM | HCC 2998 > 100 µM | MDA-MB-231 41.5 µM | SNB-19 > 100 µM | A549 > 100 µM | SK-MEL-5 > 100 µM | NCI-H522 > 100 µM | MDA-N > 100 µM | NCI/ADR-RES > 100 µM | KM12 > 100 µM | CAKI-1 > 100 µM | T47D > 100 µM | OVCAR-5 > 100 µM | 786-0 > 100 µM | MOLT-4 58.1 µM | SF-539 > 100 µM | DU-145 > 100 µM | HL-60 > 100 µM | M14 > 100 µM | HT-29 71 µM | RXF 393 > 100 µM

COc1ccc2nc3n(c2c1)CCc1cc(OC)c(OC)cc1-3
33.5 µM: HCT-15
inactive: Hs-578T 85.7 µM | SK-MEL-2 > 100 µM | MDA-MB-435 34.5 µM | SK-OV-3 > 100 µM | SF-268 > 100 µM | NCI-H460 50.5 µM | U-251 60.8 µM | ACHN 81.5 µM | NCI-H23 40.1 µM | CCRF-CEM 49.1 µM | HOP-92 56 µM | NCI-H226 54.3 µM | UACC-257 55 µM | HOP-62 58.2 µM | BT-549 30 µM | SNB-75 40.7 µM | SW-620 71.3 µM | OVCAR-4 34.8 µM | SK-MEL-28 78 µM | SF-295 50.9 µM | A498 68.7 µM | Malme-3M 91 µM | EKVX 42.4 µM | COLO 205 26.1 µM | PC-3 39.4 µM | UACC-62 32.3 µM | K562 37.9 µM | OVCAR-8 41.6 µM | SN12C 63.1 µM | LOX IMVI 45.8 µM | OVCAR-3 46.7 µM | TK-10 86.3 µM | MCF7 42.5 µM | HCT-116 47.8 µM | HCC 2998 26 µM | MDA-MB-231 > 100 µM | SNB-19 99.5 µM | A549 44.5 µM | SK-MEL-5 18.7 µM | NCI-H522 32.2 µM | MDA-N 44 µM | NCI/ADR-RES 45.2 µM | KM12 30 µM | CAKI-1 42.4 µM | T47D 34.6 µM | OVCAR-5 > 100 µM | 786-0 49.8 µM | SF-539 88.9 µM | DU-145 83.8 µM | HL-60 44.6 µM | M14 39.9 µM | HT-29 26.7 µM | RXF 393 > 100 µM

CC(C)=CCC/C(C)=C/Cc1c2c(c3oc(-c4ccc(O)c(O)c4)c(O)c(=O)c3c1O)C=CC(C)(C)O2
active: Malme-3M 0.665 µM | NCI-H522 0.916 µM
inactive: Hs-578T 9.46 µM | SK-MEL-2 6.58 µM | MDA-MB-435 5.33 µM | SK-OV-3 2.57 µM | SF-268 3.56 µM | NCI-H460 3.37 µM | U-251 3.21 µM | ACHN 2.22 µM | NCI-H23 5.41 µM | CCRF-CEM 1.79 µM | RPMI-8226 1.82 µM | NCI-H226 6.22 µM | UACC-257 5.22 µM | HOP-62 4.45 µM | BT-549 7.66 µM | SNB-75 5.22 µM | OVCAR-4 2.25 µM | UO-31 3.44 µM | SK-MEL-28 4.37 µM | SF-295 5.62 µM | A498 6.32 µM | COLO 205 1.64 µM | PC-3 5.16 µM | UACC-62 5.31 µM | K562 2.44 µM | OVCAR-8 2.05 µM | IGROV-1 2.11 µM | SN12C 5.98 µM | OVCAR-3 1.32 µM | TK-10 5.24 µM | MCF7 2.79 µM | HCT-116 2.57 µM | SR 1.84 µM | MDA-MB-231 5.74 µM | SNB-19 5.85 µM | A549 3.87 µM | SK-MEL-5 2.95 µM | MDA-N 5.02 µM | NCI/ADR-RES 5.32 µM | KM12 3.45 µM | CAKI-1 1.78 µM | T47D 1.65 µM | OVCAR-5 7.18 µM | 786-0 1.85 µM | MOLT-4 1.77 µM | SF-539 1.79 µM | DU-145 2.24 µM | HL-60 1.68 µM | M14 2.8 µM | HT-29 2.71 µM | RXF 393 7.71 µM
2.1 µM: HCT-15

CCOc1ccc2nc3cc(/N=N/c4ccc(N)nc4N)ccc3c(N)c2c1
37.8 µM: HCT-15
inactive: Hs-578T 3.13 µM | SK-MEL-2 2.1 µM | MDA-MB-435 3.03 µM | SK-OV-3 7 µM | SF-268 1.64 µM | NCI-H460 21.3 µM | ACHN 18.2 µM | NCI-H23 3.94 µM | RPMI-8226 20 µM | HOP-92 9.06 µM | NCI-H226 21.7 µM | UACC-257 19.1 µM | HOP-62 3.75 µM | BT-549 13.4 µM | SNB-75 1.41 µM | SW-620 2.51 µM | OVCAR-4 6.92 µM | UO-31 28.4 µM | SK-MEL-28 15.6 µM | SF-295 22.6 µM | A498 8.89 µM | Malme-3M 4.45 µM | EKVX 7.96 µM | COLO 205 1.86 µM | PC-3 3.57 µM | UACC-62 14.8 µM | OVCAR-8 2.73 µM | IGROV-1 23.6 µM | SN12C 2.17 µM | OVCAR-3 1.53 µM | TK-10 13.9 µM | MCF7 3.15 µM | HCT-116 1.66 µM | HCC 2998 1.79 µM | MDA-MB-231 1.54 µM | SNB-19 1.67 µM | A549 15 µM | SK-MEL-5 17.3 µM | NCI-H522 2.99 µM | MDA-N 2.24 µM | NCI/ADR-RES > 88.1 µM | KM12 3.37 µM | CAKI-1 36.4 µM | T47D 1.67 µM | OVCAR-5 21.1 µM | 786-0 1.46 µM | MOLT-4 1.46 µM | SF-539 2.05 µM | DU-145 6.65 µM | HL-60 1.95 µM | M14 20 µM | HT-29 3.5 µM | RXF 393 2.19 µM
active: U-251 0.578 µM | CCRF-CEM 0.136 µM | K562 0.299 µM | LOX IMVI 0.419 µM

O=C1c2cccnc2-c2nccc3c2c1nc1ccccc13 [ASCIDIDEMIN]
0.037 µM: HCT-15
inactive: COLO 205 1.99 µM | TK-10 1.27 µM | HT-29 1.19 µM
active: Hs-578T 0.637 µM | SK-MEL-2 0.184 µM | MDA-MB-435 0.19 µM | SK-OV-3 0.272 µM | SF-268 0.109 µM | NCI-H460 0.0879 µM | U-251 0.0845 µM | ACHN 0.0371 µM | NCI-H23 0.172 µM | CCRF-CEM 0.501 µM | RPMI-8226 0.264 µM | HOP-92 0.49 µM | NCI-H226 0.21 µM | UACC-257 0.321 µM | HOP-62 0.097 µM | BT-549 0.169 µM | SNB-75 0.389 µM | SW-620 0.0705 µM | OVCAR-4 1.03 µM | UO-31 0.143 µM | SK-MEL-28 0.321 µM | SF-295 0.0798 µM | A498 0.27 µM | Malme-3M 0.231 µM | EKVX 0.912 µM | PC-3 0.188 µM | UACC-62 0.224 µM | K562 0.166 µM | OVCAR-8 0.0505 µM | IGROV-1 0.31 µM | SN12C 0.186 µM | LOX IMVI 0.0512 µM | OVCAR-3 0.0318 µM | MCF7 0.0708 µM | HCT-116 0.0352 µM | MDA-MB-231 0.188 µM | SNB-19 0.281 µM | A549 0.255 µM | SK-MEL-5 0.0583 µM | NCI-H522 0.0975 µM | MDA-N 0.157 µM | NCI/ADR-RES 0.0551 µM | KM12 0.183 µM | CAKI-1 0.215 µM | T47D 0.29 µM | OVCAR-5 0.475 µM | 786-0 0.752 µM | MOLT-4 0.692 µM | SF-539 0.189 µM | DU-145 0.0621 µM | HL-60 0.1 µM | M14 0.0466 µM | RXF 393 0.14 µM
